Measurements reported in patent US7371207B2 (Wyeth, priority 2002, dated 2008).
“Also recorded” adds a separate entry of the source.

Legend:
[1] = tested on: gene expression in bone marrow; assay: GeneChip microarray survey of E2 regulated gene expression, bone marrow; assay type: in vivo, mouse; conditions: 20 μg/kg/day E2 s.c. six weeks; WT and ERβKO ovariectomized mice; number of genes
Method: (§1) FIG. 1 depicts a pattern analysis generated by a GeneChip microarray analysis. […] Two hours following the final dose, the mice were euthanized and 13 tissues removed for RNA preparation. Two independent studies were performed, with total RNA pooled from two groups of three animals for each condition. Gene expression was quantified by GeneChip microarrays using murine U74 sub A arrays. Data were analyzed for patterns indicating either ERα or ERβ dependent regulation as shown. […] The number of genes in each tissue that matched the theoretical induction (↑) or repression (↓) patterns for ERα or ERβ are indicated.
(§2) One week later, the animals were ovariectomized.
GeneChip—Total RNA was prepared separately from each individual organ by using Trizol (Invitrogen) followed by subsequent repurification on Rneasy columns (Qiagen). In general, two pools of RNA were created using equal amounts of RNA from three mice. […]
Target Preparation and Array Hybridization—Total RNA was used to generate biotin labeled cRNA target as described (8) which was hybridized to the murine MG_U74Av2 probe arrays (Affymetrix, Santa Clara, Calif.) for 16 h at 45° C. Eleven biotin-labeled cRNAs at defined concentration were spiked into each hybridization and used to convert average difference values to frequencies expressed as parts per million. […]

[2] = tested on: gene expression in the kidney; assay: Real-time PCR of kidney gene expression in ovariectomized WT mice
Source text: FIGS. 5A-5B show a series of graphs showing expression levels for various genes. […] (B) Uterine wet weights (mg) and gene expression values (mean±SEM).
FIGS. 6A-6D show a series of bar graphs depicting relative expression levels for various genes.
as §2

[3] = tested on: gene expression in the uterus; assay: Real-time PCR of uterine gene expression in ovariectomized WT mice; assay type: in vivo, mouse; conditions: various doses s.c. six weeks, FIG. 5
Source text: as §2

[4] = tested on: gene expression in the kidney of mice expressing ΔAF1-ERα; assay: Real-time PCR of kidney gene expression in ERαERβKO or ERαKO mice expressing ΔAF1-ERα
Method: Kidney gene expression values were determined by real-time PCR for each individual animal and normalized for GAPDH expression. The mean expression level in vehicle-treated WT mice was defined as 1 for each gene. *p<0.01 for comparison to vehicle treated animals.
One week later, the animals were ovariectomized. Commencing the day after ovariectomy, each animal received a daily subcutaneous treatment with vehicle (50% DMSO, 50% phosphate buffered saline) or vehicle containing treatments for six weeks. Each group consisted of six or seven animals. Approximately 2 hours following the final treatment, the animals were euthanized with selected tissues frozen in liquid nitrogen for RNA analysis or on dry ice for histology.

[5] = tested on: gene expression in the uterus; assay: GeneChip microarray survey of E2 regulated gene expression, uterus; conditions: 20 μg/kg/day E2 s.c. six weeks; WT and ERβKO ovariectomized mice; number of genes
Method: as §1, §2
GeneChip—Total RNA was prepared separately from each individual organ by using Trizol (Invitrogen) followed by subsequent repurification on Rneasy columns (Qiagen). In general, two pools of RNA were created using equal amounts of RNA from three mice. For small organs such as pituitary, an equal amount of RNA from six animals was combined.
Target Preparation and Array Hybridization—Total RNA was used to generate biotin labeled cRNA target as described (8) which was hybridized to the murine MG_U74Av2 probe arrays (Affymetrix, Santa Clara, Calif.) for 16 h at 45° C. Eleven biotin-labeled cRNAs at defined concentration were spiked into each hybridization and used to convert average difference values to frequencies expressed as parts per million.
The resulting data set was queried for genes whose regulation was dependent on ERα or ERβ.

[6] = tested on: gene expression in the kidney; assay: In situ hybridization of kidney, ovariectomized mice; assay type: in vivo, mouse; conditions: 20 μg/kg/day E2 six weeks, FIG. 3
Source text: No signal was detected with the corresponding sense probes.
Generally, in situ hybridization comprises the following major steps: (1) fixation of tissue or biological structure to be analyzed; (2) prehybridization treatment of the biological structure to increase accessibility of target nucleic acid, and to reduce nonspecific binding; (3) hybridization of the mixture of nucleic acids to the nucleic acid in the biological structure or tissue; (4) post-hybridization washes to remove nucleic acid fragments not bound in the hybridization, and (5) detection of the hybridized nucleic acid fragments. The probes used in such applications are typically labeled, for example, with radioisotopes or fluorescent reporters. Preferred probes are sufficiently long, for example, from about 50, 100, or 200 nucleotides to about 1000 or more nucleotides, to enable specific hybridization with the target nucleic acid(s) under stringent conditions.
as §2

[7] = 10 μg/kg/day E2 or 5 mg/kg/day tamoxifen, 6 weeks, FIG. 8

## C[C@]12CC[C@@H]3c4ccc(O)cc4CC[C@H]3[C@@H]1CC[C@@H]2O [E2, 17β-estradiol]
[1]
  ERα pattern regulations in bone marrow, number of inductions: 3
  ERα pattern regulations in bone marrow, number of repressions: 3
[2]; [7]
  BCAT1 expression in kidney, WT mice: induced
  CYP7B1 expression in kidney, WT mice: induced
  TF expression in kidney, WT mice: induced
[2]; ovariectomized WT mice, various doses s.c. six weeks, FIG. 5
  ED50 for stimulation of CYP7B1, TF, STAT5A, and BCAT1 in the kidney: about 3 μg/kg/day
[3]
  ED50 for BCAT1 induction in the uterus: 0.2 µg/kg/day
  ED50 for c-fos induction in the uterus: 2.7 µg/kg/day
[4]; 10 μg/kg/day E2, 6 weeks, FIG. 8
  CYP7B1 expression in kidney, mice expressing ΔAF1-ERα (ERαERβKO or ERαKO): increased CYP7B1 expression
[4]; [7]
  BCAT1 expression in kidney, ERαERβKO mice: stimulated BCAT1 expression
  TF expression in kidney, ERαERβKO mice (express only ΔAF1-ERα): Neither compound could induce TF expression
[4]; WT versus ΔAF1-ERα mice, E2 versus tamoxifen
  mechanism of induction of BCAT1 in kidney (ERα AF1 or AF2): either AF1 or AF2 mechanisms; also recorded: both AF1 and AF2 mechanisms
[5]
  ERα pattern regulations in uterus, number of inductions: 514
  ERα pattern regulations in uterus, number of repressions: 19
[6]
  localization of induction of CYP7B1, TF, STAT5A and GADD45G in mouse kidney: induction of gene expression occurred in the juxtamedullary region of the kidney
